Measurements as given in the NIST ThermoML archive (doi:10.1021/je101361u).

Assay: xn = mol fraction of the nth substance listed
Conditions: 101.3 kPa, Liquid, Vibrating tube method

CCOCCOCCOCC [diethylene glycol diethyl ether] + ClCCCl
Conditions	mass density [kg/m3]
283.15 K, x2 = 0.0234	920.54
283.15 K, x2 = 0.0504	925.19
283.15 K, x2 = 0.0751	929.56
283.15 K, x2 = 0.1009	934.31
283.15 K, x2 = 0.1504	943.66
283.15 K, x2 = 0.2	953.71
283.15 K, x2 = 0.2546	965.43
283.15 K, x2 = 0.2999	975.65
283.15 K, x2 = 0.35	987.75
283.15 K, x2 = 0.4006	1000.78
283.15 K, x2 = 0.4502	1014.42
283.15 K, x2 = 0.5002	1029.16
283.15 K, x2 = 0.5499	1044.87
283.15 K, x2 = 0.6	1061.87
283.15 K, x2 = 0.65	1080.19
283.15 K, x2 = 0.6999	1100.05
283.15 K, x2 = 0.7492	1121.14
283.15 K, x2 = 0.8	1145.22
283.15 K, x2 = 0.85	1171.12
283.15 K, x2 = 0.9	1199.76
283.15 K, x2 = 0.95	1231.56
283.15 K, x2 = 0.975	1248.9
288.15 K, x2 = 0.0234	915.7
288.15 K, x2 = 0.0504	920.3
288.15 K, x2 = 0.0751	924.64
288.15 K, x2 = 0.1009	929.36
288.15 K, x2 = 0.1504	938.64
288.15 K, x2 = 0.2	948.62
288.15 K, x2 = 0.2546	960.24
288.15 K, x2 = 0.2999	970.39
288.15 K, x2 = 0.35	982.41
288.15 K, x2 = 0.4006	995.34
288.15 K, x2 = 0.4502	1008.87
288.15 K, x2 = 0.5002	1023.52
288.15 K, x2 = 0.5499	1039.11
288.15 K, x2 = 0.6	1056
288.15 K, x2 = 0.65	1074.19
288.15 K, x2 = 0.6999	1093.92
288.15 K, x2 = 0.7492	1114.87
288.15 K, x2 = 0.8	1138.79
288.15 K, x2 = 0.85	1164.52
288.15 K, x2 = 0.9	1192.98
288.15 K, x2 = 0.95	1224.58
288.15 K, x2 = 0.975	1241.8
293.15 K, x2 = 0.0234	910.83
293.15 K, x2 = 0.0504	915.41
293.15 K, x2 = 0.0751	919.72
293.15 K, x2 = 0.1009	924.39
293.15 K, x2 = 0.1504	933.61
293.15 K, x2 = 0.2	943.52
293.15 K, x2 = 0.2546	955.05
293.15 K, x2 = 0.2999	965.13
293.15 K, x2 = 0.35	977.05
293.15 K, x2 = 0.4006	989.89
293.15 K, x2 = 0.4502	1003.32
293.15 K, x2 = 0.5002	1017.86
293.15 K, x2 = 0.5499	1033.35
293.15 K, x2 = 0.6	1050.12
293.15 K, x2 = 0.65	1068.18
293.15 K, x2 = 0.6999	1087.77
293.15 K, x2 = 0.7492	1108.58
293.15 K, x2 = 0.8	1132.34
293.15 K, x2 = 0.85	1157.9
293.15 K, x2 = 0.9	1186.17
293.15 K, x2 = 0.95	1217.56
293.15 K, x2 = 0.975	1234.66
298.15 K, x2 = 0.0234	905.98
298.15 K, x2 = 0.0504	910.52
298.15 K, x2 = 0.0751	914.8
298.15 K, x2 = 0.1009	919.44
298.15 K, x2 = 0.1504	928.58
298.15 K, x2 = 0.2	938.42
298.15 K, x2 = 0.2546	949.86
298.15 K, x2 = 0.2999	959.86
298.15 K, x2 = 0.35	971.69
298.15 K, x2 = 0.4006	984.44
298.15 K, x2 = 0.4502	997.77
298.15 K, x2 = 0.5002	1012.21
298.15 K, x2 = 0.5499	1027.58
298.15 K, x2 = 0.6	1044.23
298.15 K, x2 = 0.65	1062.16
298.15 K, x2 = 0.6999	1081.63
298.15 K, x2 = 0.7492	1102.29
298.15 K, x2 = 0.8	1125.89
298.15 K, x2 = 0.85	1151.27
298.15 K, x2 = 0.9	1179.35
298.15 K, x2 = 0.95	1210.52
298.15 K, x2 = 0.975	1227.5
303.15 K, x2 = 0.0234	901.12
303.15 K, x2 = 0.0504	905.62
303.15 K, x2 = 0.0751	909.87
303.15 K, x2 = 0.1009	914.47
303.15 K, x2 = 0.1504	923.55
303.15 K, x2 = 0.2	933.31
303.15 K, x2 = 0.2546	944.67
303.15 K, x2 = 0.2999	954.59
303.15 K, x2 = 0.35	966.34
303.15 K, x2 = 0.4006	978.99
303.15 K, x2 = 0.4502	992.22
303.15 K, x2 = 0.5002	1006.55
303.15 K, x2 = 0.5499	1021.8
303.15 K, x2 = 0.6	1038.33
303.15 K, x2 = 0.65	1056.14
303.15 K, x2 = 0.6999	1075.47
303.15 K, x2 = 0.7492	1095.99
303.15 K, x2 = 0.8	1119.42
303.15 K, x2 = 0.85	1144.62
303.15 K, x2 = 0.9	1172.51
303.15 K, x2 = 0.95	1203.45
303.15 K, x2 = 0.975	1220.32
308.15 K, x2 = 0.0234	896.25
308.15 K, x2 = 0.0504	900.73
308.15 K, x2 = 0.0751	904.95
308.15 K, x2 = 0.1009	909.51
308.15 K, x2 = 0.1504	918.52
308.15 K, x2 = 0.2	928.2
308.15 K, x2 = 0.2546	939.47
308.15 K, x2 = 0.2999	949.32
308.15 K, x2 = 0.35	960.97
308.15 K, x2 = 0.4006	973.53
308.15 K, x2 = 0.4502	986.66
308.15 K, x2 = 0.5002	1000.88
308.15 K, x2 = 0.5499	1016.02
308.15 K, x2 = 0.6	1032.44
308.15 K, x2 = 0.65	1050.11
308.15 K, x2 = 0.6999	1069.3
308.15 K, x2 = 0.7492	1089.67
308.15 K, x2 = 0.8	1112.94
308.15 K, x2 = 0.85	1137.96
308.15 K, x2 = 0.9	1165.64
308.15 K, x2 = 0.95	1196.36
308.15 K, x2 = 0.975	1213.1
313.15 K, x2 = 0.0234	891.38
313.15 K, x2 = 0.0504	895.82
313.15 K, x2 = 0.0751	900.01
313.15 K, x2 = 0.1009	904.54
313.15 K, x2 = 0.1504	913.47
313.15 K, x2 = 0.2	923.09
313.15 K, x2 = 0.2546	934.27
313.15 K, x2 = 0.2999	944.04
313.15 K, x2 = 0.35	955.6
313.15 K, x2 = 0.4006	968.06
313.15 K, x2 = 0.4502	981.1
313.15 K, x2 = 0.5002	995.21
313.15 K, x2 = 0.5499	1010.23
313.15 K, x2 = 0.6	1026.51
313.15 K, x2 = 0.65	1044.07
313.15 K, x2 = 0.6999	1063.11
313.15 K, x2 = 0.7492	1083.34
313.15 K, x2 = 0.8	1106.44
313.15 K, x2 = 0.85	1131.28
313.15 K, x2 = 0.9	1158.75
313.15 K, x2 = 0.95	1189.24
313.15 K, x2 = 0.975	1205.85
318.15 K, x2 = 0.0234	886.51
318.15 K, x2 = 0.0504	890.92
318.15 K, x2 = 0.0751	895.06
318.15 K, x2 = 0.1009	899.56
318.15 K, x2 = 0.1504	908.43
318.15 K, x2 = 0.2	917.97
318.15 K, x2 = 0.2546	929.05
318.15 K, x2 = 0.2999	938.75
318.15 K, x2 = 0.35	950.21
318.15 K, x2 = 0.4006	962.59
318.15 K, x2 = 0.4502	975.52
318.15 K, x2 = 0.5002	989.52
318.15 K, x2 = 0.5499	1004.42
318.15 K, x2 = 0.6	1020.6
318.15 K, x2 = 0.65	1038
318.15 K, x2 = 0.6999	1056.9
318.15 K, x2 = 0.7492	1077
318.15 K, x2 = 0.8	1099.91
318.15 K, x2 = 0.85	1124.57
318.15 K, x2 = 0.9	1151.82
318.15 K, x2 = 0.95	1182.08
318.15 K, x2 = 0.975	1198.56
323.15 K, x2 = 0	877.66
323.15 K, x2 = 0.0234	881.62
323.15 K, x2 = 0.0504	886
323.15 K, x2 = 0.0751	890.1
323.15 K, x2 = 0.1009	894.58
323.15 K, x2 = 0.1504	903.37
323.15 K, x2 = 0.2	912.84
323.15 K, x2 = 0.2546	923.83
323.15 K, x2 = 0.2999	933.46
323.15 K, x2 = 0.35	944.83
323.15 K, x2 = 0.4006	957.11
323.15 K, x2 = 0.4502	969.94
323.15 K, x2 = 0.5002	983.83
323.15 K, x2 = 0.5499	998.59
323.15 K, x2 = 0.6	1014.67
323.15 K, x2 = 0.65	1031.92
323.15 K, x2 = 0.6999	1050.67
323.15 K, x2 = 0.7492	1070.63
323.15 K, x2 = 0.8	1093.36
323.15 K, x2 = 0.85	1117.84
323.15 K, x2 = 0.9	1144.87
323.15 K, x2 = 0.95	1174.86
323.15 K, x2 = 0.975	1191.23
328.15 K, x2 = 0.0234	876.73
328.15 K, x2 = 0.0504	881.07
328.15 K, x2 = 0.0751	885.15
328.15 K, x2 = 0.1009	889.59
328.15 K, x2 = 0.1504	898.31
328.15 K, x2 = 0.2	907.7
328.15 K, x2 = 0.2546	918.61
328.15 K, x2 = 0.2999	928.16
328.15 K, x2 = 0.35	939.44
328.15 K, x2 = 0.4006	951.61
328.15 K, x2 = 0.4502	964.34
328.15 K, x2 = 0.5002	978.12
328.15 K, x2 = 0.5499	992.77
328.15 K, x2 = 0.6	1008.71
328.15 K, x2 = 0.65	1025.84
328.15 K, x2 = 0.6999	1044.44
328.15 K, x2 = 0.7492	1064.24
328.15 K, x2 = 0.8	1086.78
328.15 K, x2 = 0.85	1111.08
328.15 K, x2 = 0.9	1137.9
328.15 K, x2 = 0.95	1167.69
328.15 K, x2 = 0.975	1183.9
333.15 K, x2 = 0.0234	871.83
333.15 K, x2 = 0.0504	876.13
333.15 K, x2 = 0.0751	880.18
333.15 K, x2 = 0.1009	884.59
333.15 K, x2 = 0.1504	893.23
333.15 K, x2 = 0.2	902.54
333.15 K, x2 = 0.2546	913.36
333.15 K, x2 = 0.2999	922.86
333.15 K, x2 = 0.35	934.03
333.15 K, x2 = 0.4006	946.09
333.15 K, x2 = 0.4502	958.72
333.15 K, x2 = 0.5002	972.39
333.15 K, x2 = 0.5499	986.94
333.15 K, x2 = 0.6	1002.74
333.15 K, x2 = 0.65	1019.73
333.15 K, x2 = 0.6999	1038.18
333.15 K, x2 = 0.7492	1057.81
333.15 K, x2 = 0.8	1080.17
333.15 K, x2 = 0.85	1104.27
333.15 K, x2 = 0.9	1130.88
333.15 K, x2 = 0.95	1160.44
333.15 K, x2 = 0.975	1176.53
